pEC50, pIC50: −log10 of the molar value.
Experiments:
[1] = molecular target: T1, full-length NS3/NS4A-2 (HCV NS3 protease) (Hepatitis C virus genotype 1b, UniProt Q9WMX2); test: NS3 Inhibition Assay (NS3-NS4 protease assay, RETS1 substrate); assay type: biochemical; conditions: NS3/NS4A-2 protease
T1 construct: Recombinant E. coli or Baculovirus full-length NS3; host or cells: E. coli or baculovirus (BV) expression
Experimental: NS3 Complex Formation with NS4A-2.
Recombinant E. coli or Baculovirus full-length NS3 was diluted to 3.33 μM with assay buffer and transferred material to an eppendorf tube and placed in a water bath in a 4° C. refrigerator. The appropriate amount of NS4A-2 diluted to […] in assay buffer was added to equal the volume of NS3 above (conversion factor—3.8 mg/272 μL assay buffer). The material was transferred to an eppendorf tube and placed in water bath in a 4° C. refrigerator.
After equilibration to 4° C., equal volumes of NS3 and NS4A-2 solutions were combined in an eppendorf tube, mix gently with a manual pipettor, and incubate mixture for 15 minutes in the 4° C. water bath. Final concentrations in the mixture are 1.67 μM NS3, 4.15 mM NS4A-2 (2485-fold molar excess NS4A-2).
After 15 minutes at 4° C., the NS3/NS4A-2 eppendorf tube was removed and place it in a room temperature water bath for 10 minutes. NS3/NS4A-2 was aliquoted at appropriate volumes and store at −80° C. (E. coli NS3 run at 2 nM in assay, aliquot at 25 μL. BV NS3 run at 3 nM in assay, aliquot at 30 μL).
Step a. Sample compounds were dissolved to 10 mM in DMSO then diluted to 2.5 mM (1:4) in DMSO. Typically, compounds were added to an assay plate at 2.5 mM concentration, yielding upon dilution a starting concentration of 50 microM in the assay inhibition curve. Compounds were serial diluted in assay buffer to provide test solutions at lower concentrations.
Step b. The E. coli. NS3/NS4A-2 was diluted to 4 nM NS3 (1:417.5 of 1.67 μM stock−18 μL1.67 μM stock+7497 μL assay buffer). The BV NS3/NS4A-2 was diluted to 6 nM NS3 (1:278.3 of 1.67 μM stock−24 μL1.67 μM stock+6655 μL assay buffer).
Step c. Using the manual multichannel pipettor, and being careful not to introduce bubbles into the plate, 50 μL assay buffer were added to wells A01-H01 of a black Costar 96-well polypropylene storage plate.
Step d. Using the manual multichannel pipettor, and being careful not to introduce bubbles into the plate, 50 μL of diluted NS3/NS4A-2 from Step b were added to wells A02-H12 of the plate in Step c.
Step e. Using the manual multichannel pipettor, and being careful not to introduce bubbles into the plate, 25 μL of the wells in drug dilution plate in Step a were transferred to corresponding wells in assay plate in Step d. The tips on the multichannel pipettor were changed for each row of compounds transferred.
Step f Using the manual multichannel pipettor, and being careful not to introduce bubbles into the plate, the contentes of the wells from the assay plate in Step e were mixed by aspirating and dispensing 35 μL of the 75 μL in each well five times. The tips on multichannel pipettor were changed for each row of wells mixed.
Step g. The plate was covered with a polystyrene plate lid, and the plate from Step f containing NS3 protease and sample compounds was pre-incubated 10 minutes at room temperature.
While plate from Step g is pre-incubating, the RETS1 substrate was diluted in a 15 mL polypropylene centrifuge tube. The RETS1 substrate was diluted to 8 μM (1:80.75 of 646 μM stock—65 μL 646 μM stock+5184 μL assay buffer).
After the plate in Step g was done pre-incubating, and using the manual multichannel, 25 μL of substrate were added to all wells on the plate. The contents of the wells of the plate were quickly mixed, as in Step f, mixing 65 μL of the 100 μL in the wells.
The plate was read in kinetic mode on the Molecular Devices SpectraMax Gemini XS plate reader. Reader settings: Read time: 30 minutes, Interval: 36 seconds, Reads: 51, Excitation λ: 335 nm, Emission λ: 495 nm, cutoff: 475 nm, Automix: off, Calibrate: once, PMT: high, Reads/well: 6, Vmax pts: 21 or 28/51 depending on length of linearity of reaction
IC50s are determined using a four parameter curve fit equation, and converted to Ki's using the following Km's: […]
Full-length E. coli NS3−2.03 μM
Full-length BV NS3−1.74 μM
where Ki=IC50/(1+[S]/Km))

[2] = test system: HCV sub-genomic replicon, GS4.3 (HuH-7 hepatoma cells); test: Quantitation by ELISA of NPTII in the HCV sub-genomic replicon, GS4.3; assay type: cell-based; conditions: Hepatitis C virus, GS4.3 replicon cells, 72 h incubation
Source text: Quantitation by ELISA of the Selectable Marker Protein, Neomycin Phosphotransferase II (NPTII) in the HCV Sub-Genomic Replicon, GS4.3
The HCV sub-genomic replicon (1377/NS3-3′, accession No. AJ242652), stably maintained in HuH-7 hepatoma cells, was created by Lohmann et al. Science 285: 110-113 (1999). The replicon-containing cell culture, designated GS4.3, was obtained from Dr. Christoph Seeger of the Institute for Cancer Research, Fox Chase Cancer Center, Philadelphia, Pa.
GS4.3 cells were maintained at 37° C., 5% CO2, in DMEM (Gibco 11965-092) supplemented with L-glutamine 200 mM (100×) (Gibco25030-081), non-essential amino acids (NEAA)(Biowhittaker 13-114E), heat-inactivated (HI) Fetal Bovine Serum(FBS)(Hyclone SH3007.03) and 750 μg/mL geneticin (G418)(Gibco 10131-035). Cells were sub-divided 1:3 or 4 every 2-3 days.
24 h prior to the assay, GS4.3 cells were collected, counted, and plated in 96-well plates (Costar 3585) at 7500 cells/well in […] standard maintenance medium (above) and incubated in the conditions above. To initiate the assay, culture medium was removed, cells were washed once with PBS (Gibco 10010-023) and 90 μl Assay Medium (DMEM, L-glutamine, NEAA, 10% HI FBS, no G418) was added. Inhibitors were made as a 10× stock in Assay Medium, (3-fold dilutions from 10 μM to […] final concentration, final DMSO concentration 1%), […] were added to duplicate wells, plates were rocked to mix, and incubated as above for 72 h.
An NPTII Elisa kit was obtained from AGDIA, Inc. (Compound direct ELISA test system for Neomycin Phosphotransferase II, PSP 73000/4800). Manufacturer's instructions were followed, with some modifications. 10×PEB-1 lysis buffer was made up to include 500 μM PMSF (Sigma P7626, 50 mM stock in isopropanol). After 72 h incubation, cells were washed once with PBS and […] PEB-1 with PMSF was added per well. Plates were agitated vigorously for 15 minutes, room temperature, then frozen at −70° C. Plates were thawed, lysates were mixed thoroughly, and 100 μl were applied to an NPTII Elisa plate. A standard curve was made. Lysate from DMSO-treated control cells was pooled, serially diluted with PEB-1 with PMSF, and applied to duplicate wells of the ELISA plate, in a range of initial lysate amount of 150 μL-2.5 μL. In addition, 100 μL buffer alone was applied in duplicate as a blank. Plates were sealed and gently agitated at room temperature for 2 h. Following capture incubation, the plates were washed 5×300 μL with PBS-T (0.5% Tween-20, PBS-T was supplied in the ELISA kit). For detection, a 1× dilution of enzyme conjugate diluent MRS-2 (5×) was made in PBS-T, into which 1:100 dilutions of enzyme conjugates A and B were added, as per instructions. Plates were resealed, and incubated with agitation, covered, room temperature, for 2 h. The washing was then repeated and 100 μL, of room temperature TMB substrate was added. After approximately 30 minutes incubation (room temperature, agitation, covered), the reaction was stopped with 50 μL, 3M sulfuric acid. Plates were read at 450 nm on a Molecular Devices Versamax plate reader.
Inhibitor effect was expressed as a percentage of DMSO-treated control signal, and inhibition curves were calculated using a 4-parameter equation: y=A+((B−A)/(1+((C/x)̂D))), where C is half-maximal activity or EC50.

T1 sequence (Q9WMX2 1027-1657): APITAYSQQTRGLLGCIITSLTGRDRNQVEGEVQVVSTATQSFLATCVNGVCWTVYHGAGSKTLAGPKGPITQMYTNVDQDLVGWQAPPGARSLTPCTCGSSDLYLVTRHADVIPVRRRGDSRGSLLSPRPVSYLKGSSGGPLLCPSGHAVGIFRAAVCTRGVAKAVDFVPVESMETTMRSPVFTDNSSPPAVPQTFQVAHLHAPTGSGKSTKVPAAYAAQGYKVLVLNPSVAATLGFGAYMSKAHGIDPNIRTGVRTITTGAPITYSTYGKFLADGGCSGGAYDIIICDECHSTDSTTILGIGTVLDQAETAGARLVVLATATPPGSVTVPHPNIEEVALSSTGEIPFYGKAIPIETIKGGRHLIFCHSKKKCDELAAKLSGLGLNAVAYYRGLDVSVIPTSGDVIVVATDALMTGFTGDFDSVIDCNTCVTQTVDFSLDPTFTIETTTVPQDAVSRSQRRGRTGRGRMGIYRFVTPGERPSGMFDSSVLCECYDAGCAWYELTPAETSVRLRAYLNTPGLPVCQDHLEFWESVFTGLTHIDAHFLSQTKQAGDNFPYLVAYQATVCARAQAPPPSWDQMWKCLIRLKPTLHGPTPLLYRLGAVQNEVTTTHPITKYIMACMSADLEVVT
T1 sequence (Q9WMX2 1658-1711): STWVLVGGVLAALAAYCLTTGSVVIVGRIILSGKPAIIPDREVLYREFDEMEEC

SMILES	pIC50 [1]	pEC50 [2]
CC[C@@H]1C[C@]1(NC(=O)[C@@H]1C[C@@H](Oc2cc(-c3nc(C(C)C)cs3)nc3c(C)c(OC)ccc23)CN1C(=O)[C@@H](Nc1ccc(C(F)(F)F)cc1)C(C)(C)C)C(=O)NS(=O)(=O)C1(C)CC1 [Compound 299]	> 7.00	> 7.00
CC[C@@H]1C[C@]1(NC(=O)[C@@H]1C[C@@H](Oc2cc(-c3nc(C(C)C)cs3)nc3c(C)c(OC)ccc23)CN1C(=O)[C@@H](Nc1ccc(F)c(C(F)(F)F)c1)C(C)(C)C)C(=O)NS(=O)(=O)C1(C)CC1 [Compound 301]	> 7.00	> 7.00
CC[C@@H]1C[C@]1(NC(=O)[C@@H]1C[C@@H](OC(=O)N2Cc3cccc(F)c3C2)CN1C(=O)[C@@H](Nc1ccc(C(=O)OC)cc1)C(C)(C)C)C(=O)NS(=O)(=O)C1CC1 [Compound 2]	> 7.00	6.00 to 7.00
CC[C@@H]1CC1(NC(=O)[C@@H]1C[C@@H](OC(=O)N2Cc3cccc(Cl)c3C2)CN1C(=O)[C@@H](Nc1cccnc1)C(C)(C)C)C(=O)NS(=O)(=O)C1CC1 (some centres unmarked) [Compound 1]	> 7.00	> 7.00
C=C[C@@H]1C[C@]1(NC(=O)[C@@H]1C[C@@H](Oc2cc(-c3nc(C(C)C)cs3)nc3c(C)c(OC)ccc23)CN1C(=O)[C@@H](Nc1ccccc1[N+](=O)[O-])C(C)(C)C)C(=O)NS(=O)(=O)C1CC1 [Compound 351]	6.00 to 7.00	> 7.00
C=C[C@@H]1C[C@]1(NC(=O)[C@@H]1C[C@@H](Oc2cc(-c3nc(C(C)C)cs3)nc3c(C)c(OC)ccc23)CN1C(=O)[C@@H](Nc1ccccc1)C(C)(C)C)C(=O)NS(=O)(=O)C1CC1 [Compound 353]	> 7.00	> 7.00
CC(C)(C)[C@H](Nc1cccc(C(F)(F)F)c1)C(=O)N1C[C@H](OC(=O)N2Cc3cccc(Cl)c3C2)C[C@H]1C(=O)N[C@]1(C(=O)NS(=O)(=O)C2CC2)C[C@H]1C1CC1 [Compound 293]	> 7.00	> 7.00
CC[C@@H]1C[C@]1(NC(=O)[C@@H]1C[C@@H](OC(=O)N2Cc3cccc(F)c3C2)CN1C(=O)[C@@H](Nc1ccc(S(=O)(=O)N2CCNCC2)cc1)C(C)(C)C)C(=O)NS(=O)(=O)C1CC1 [Compound 17]	> 7.00	< 6.00
C=C[C@@H]1C[C@]1(NC(=O)[C@@H]1C[C@@H](Oc2cc(-c3nc(C(C)C)cs3)nc3c(C)c(OC)ccc23)CN1C(=O)[C@@H](Nc1cc(F)cc(C(F)(F)F)c1)C(C)(C)C)C(=O)NS(=O)(=O)N(C)C [Compound 307]	> 7.00	> 7.00
CC[C@@H]1C[C@]1(NC(=O)[C@@H]1C[C@@H](OC(=O)N2Cc3cccc(Cl)c3C2)CN1C(=O)[C@@H](Nc1cccc(C(F)(F)F)c1)C(C)(C)C)C(=O)NS(=O)(=O)C1(C)CC1 [Compound 282]	> 7.00	> 7.00
C=C[C@@H]1C[C@]1(NC(=O)[C@@H]1C[C@@H](Oc2cc(-c3nc(C(C)C)cs3)nc3c(C)c(OC)ccc23)CN1C(=O)[C@@H](Nc1ccc(F)c(C(F)(F)F)c1)C(C)(C)C)C(=O)NS(=O)(=O)C1(C)CC1 [Compound 305]	> 7.00	> 7.00
CC[C@@H]1C[C@]1(NC(=O)[C@@H]1C[C@@H](Oc2nc3ccccc3s2)CN1C(=O)[C@@H](Nc1cccc(C(F)(F)F)c1)C(C)(C)C)C(=O)NS(=O)(=O)C1(C)CC1 [Compound 231]	> 7.00	> 7.00
CC[C@@H]1C[C@]1(NC(=O)[C@@H]1C[C@@H](OC(=O)N2Cc3ccc(OC)cc3C2)CN1C(=O)[C@@H](Nc1cc(F)cc(C(F)(F)F)c1)C(C)(C)C)C(=O)NS(=O)(=O)C1(C)CC1 [Compound 291]	> 7.00	> 7.00
CC[C@@H]1C[C@]1(NC(=O)[C@@H]1C[C@@H](OC(=O)N2Cc3ccc(NC(=O)CN4CCOCC4)cc3C2)CN1C(=O)[C@@H](Nc1cc(F)cc(C(F)(F)F)c1)C(C)(C)C)C(=O)NS(=O)(=O)C1CC1 [Compound 20]	> 7.00	> 7.00
CC(C)(C)[C@H](Nc1cc(F)cc(C(F)(F)F)c1)C(=O)N1C[C@H](OC(=O)N2Cc3cccc(Cl)c3C2)C[C@H]1C(=O)N[C@]1(C(=O)NS(=O)(=O)C2CC2)C[C@H]1C1CC1 [Compound 292]	> 7.00	> 7.00
C=C[C@@H]1C[C@]1(NC(=O)[C@@H]1C[C@@H](Oc2cc(-c3ccccc3)nc3cc(OC)ccc23)CN1C(=O)[C@@H](Nc1cc(F)cc(C(F)(F)F)c1)C(C)(C)C)C(=O)NS(=O)(=O)C1(C)CC1 [Compound 281]	> 7.00	> 7.00

— patent publication US20100119479A1, “THERAPEUTIC ANTIVIRAL PEPTIDES” (INTERMUNE, INC., priority 2008, published 2010)
